The subject of the test is NOD mice. As to conditions: mouse, in vivo.

Consider one substance from patent US20020031787A1, “Compositions and methods for reducing autoimmunity” (priority 2000, published 2002).

Where no end group is shown, it is not given here.

As to “insulin B chain 8-20 amino acid peptide (GSHLVEALYLVCG; ends and bridges not checked; UniProt P01308 32-44, looked up, fragment) [islet cell antigen peptide added to the vaccines]”, the “effect of the vaccines on diabetes when the peptide was added” value is recorded as “enhanced”.
